Laboratory results reported in ChEMBL document CHEMBL1201862, “PubChem BioAssay data set” (2004).
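Cells were grown in 96-well plates and exposed to each compound for 48 hours at five concentrations; endpoints were interpolated linearly between bracketing concentrations, or set to the highest concentration if not reached. GI50: concentration for 50% inhibition of growth.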 Active and inactive are the calls of the source. Rule as the data show it: active = GI50 up to about 1.1 µM and inactive = higher.

Columns and labels:
Experiment in all cases: DTP human tumour cell line panel, 48 h
MDA-MB-435 = system: MDA-MB-435
Hs-578T = system: Hs-578T
MOLT-4 = system: MOLT-4
NCI-H23 = system: NCI-H23
SF-539 = system: SF-539
NCI-H226 = system: NCI-H226
HT-29 = system: HT-29
CCRF-CEM = system: CCRF-CEM
TK-10 = system: TK-10
NCI/ADR-RES = system: NCI/ADR-RES
SK-MEL-5 = system: SK-MEL-5
RPMI-8226 = system: RPMI-8226
SR = system: SR
A498 = system: A498
ACHN = system: ACHN
U-251 = system: U-251
786-0 = system: 786-0
HOP-92 = system: HOP-92
SF-268 = system: SF-268
SK-OV-3 = system: SK-OV-3

Row | Compound | GI50 (MDA-MB-435) | GI50 (Hs-578T) | GI50 (MOLT-4) | GI50 (NCI-H23) | GI50 (SF-539) | GI50 (NCI-H226) | GI50 (HT-29) | GI50 (CCRF-CEM) | GI50 (TK-10) | GI50 (NCI/ADR-RES) | GI50 (SK-MEL-5) | GI50 (RPMI-8226) | GI50 (SR) | GI50 (A498) | GI50 (ACHN) | GI50 (U-251) | GI50 (786-0) | GI50 (HOP-92) | GI50 (SF-268) | GI50 (SK-OV-3)
1 | O=c1[nH]c2ccsc2c(=O)n1COCc1ccccc1 | > 100 µM (inactive) | > 100 µM (inactive) | > 100 µM (inactive) | > 100 µM (inactive) | > 100 µM (inactive) | > 100 µM (inactive) | > 100 µM (inactive) | > 100 µM (inactive) | > 100 µM (inactive) | > 100 µM (inactive) | > 100 µM (inactive) | > 100 µM (inactive) | > 100 µM (inactive) | > 100 µM (inactive) | > 100 µM (inactive) | > 100 µM (inactive) | > 100 µM (inactive) | 79.8 µM (inactive) | > 100 µM (inactive) | –
2 | CCOC(=O)c1nc2ccccc2nc1Oc1ccc(OC)cc1 | > 100 µM (inactive) | > 100 µM (inactive) | > 100 µM (inactive) | – | > 100 µM (inactive) | > 100 µM (inactive) | > 100 µM (inactive) | > 100 µM (inactive) | > 100 µM (inactive) | > 100 µM (inactive) | > 100 µM (inactive) | > 100 µM (inactive) | > 100 µM (inactive) | > 100 µM (inactive) | > 100 µM (inactive) | > 100 µM (inactive) | > 100 µM (inactive) | > 100 µM (inactive) | > 100 µM (inactive) | > 100 µM (inactive)
3 | O=C1CCSSCCC(=O)NCCN1 | > 100 µM (inactive) | > 100 µM (inactive) | > 100 µM (inactive) | > 100 µM (inactive) | > 100 µM (inactive) | > 100 µM (inactive) | > 100 µM (inactive) | > 100 µM (inactive) | > 100 µM (inactive) | > 100 µM (inactive) | > 100 µM (inactive) | > 100 µM (inactive) | 91.2 µM (inactive) | > 100 µM (inactive) | > 100 µM (inactive) | > 100 µM (inactive) | > 100 µM (inactive) | > 100 µM (inactive) | > 100 µM (inactive) | > 100 µM (inactive)
4 | CSC(=S)OC1CC(n2cnc3c(NC(=O)c4ccccc4)ncnc32)OC1CO[Si](C)(C)C(C)(C)C (configuration not stated) | 6.12 µM (inactive) | 38.8 µM (inactive) | 2.03 µM (inactive) | 13.2 µM (inactive) | 36.3 µM (inactive) | 14.2 µM (inactive) | 9.18 µM (inactive) | 3.5 µM (inactive) | 35.6 µM (inactive) | 9.02 µM (inactive) | 5.45 µM (inactive) | 16.3 µM (inactive) | 11 µM (inactive) | 19.1 µM (inactive) | 13.8 µM (inactive) | 7.41 µM (inactive) | 13.6 µM (inactive) | 13.9 µM (inactive) | 30.7 µM (inactive) | 36.6 µM (inactive)
5 | C/C(=C\COc1ccc2ccc(=O)oc2c1)CCC(=O)C(C)(C)O | 21.4 µM (inactive) | 26.4 µM (inactive) | 22.9 µM (inactive) | 33 µM (inactive) | 21 µM (inactive) | 26.5 µM (inactive) | 23.2 µM (inactive) | 16.4 µM (inactive) | 39.3 µM (inactive) | 27.9 µM (inactive) | 16.5 µM (inactive) | 17 µM (inactive) | 15.3 µM (inactive) | 24 µM (inactive) | 31.3 µM (inactive) | 19.8 µM (inactive) | 18.3 µM (inactive) | 26.4 µM (inactive) | 41.8 µM (inactive) | 36 µM (inactive)
6 | O=C1C(c2ccc([N+](=O)[O-])cc2)=C(Cl)C(=O)c2c(O)cccc21 | 17.7 µM (inactive) | 26.8 µM (inactive) | 3.66 µM (inactive) | 18.1 µM (inactive) | 20.2 µM (inactive) | > 43.2 µM (inactive) | 21 µM (inactive) | 4.56 µM (inactive) | 20.2 µM (inactive) | 28.4 µM (inactive) | 23.4 µM (inactive) | 41.3 µM (inactive) | > 100 µM (inactive) | 25.3 µM (inactive) | 18.5 µM (inactive) | 17.9 µM (inactive) | 15.5 µM (inactive) | 19 µM (inactive) | 23.1 µM (inactive) | 50.8 µM (inactive)
7 | CS(=O)(=O)N1CC(CCl)c2ccc(O)cc21 (configuration not stated) | 1.89 µM (inactive) | 4.32 µM (inactive) | 2.09 µM (inactive) | 2.02 µM (inactive) | 2.04 µM (inactive) | 2.34 µM (inactive) | 2.86 µM (inactive) | 1.58 µM (inactive) | 2.32 µM (inactive) | 2.56 µM (inactive) | 1.55 µM (inactive) | 2.03 µM (inactive) | 2.84 µM (inactive) | 1.83 µM (inactive) | 3.4 µM (inactive) | 2.74 µM (inactive) | 3.31 µM (inactive) | 3.11 µM (inactive) | 0.155 µM (active) | –
